# Experimental data as given in US7109193B2, “Tricyclic diazepines tocolytic oxytocin receptor antagonists” (Wyeth, priority 2001, dated 2006).
# Target: T1, human vasopressin V1a receptor subtype (Homo sapiens, UniProt P37288)
# T1 construct: host or cells: CHO cells (pZeoSV vector for the Thibonnier line)
# Experiment: Vasopressin binding in Chinese Hamster Ovary cell membranes expressing human vasopressin V1a subtype receptors
# Details: 100 nM, CHO cell membranes, [3H]Manning ligand, values without parentheses
# Description: Vasopressin Binding in Chinese Hamster Ovary Cell Membranes Expressing Human Vasopressin V1a Subtype Receptors
# The trypsin is removed by aspiration and the cells dislodged by tapping. Cell Culture medium (e.g. 30 mL for 1:30 split) is immediately added and mixed well to inactivate trypsin. 1 mL of detached cells is added to new culture flasks containing fresh cell culture medium (e.g., into 25 mL per T-150 flask), and mixed gently. The cells are incubated at 37° C. in 5% CO2. The medium is changed at 3 to 4 days interval (or as appropriate). […] All steps are done under sterile conditions. B. Membrane Preparation: The cells are washed twice gently with Hank's Balanced Salt solution (e.g,. use 10 mL per T-150 flask). […] The contents are transferred to centrifuge tubes (50 mL) kept in an ice bath. All subsequent steps are done at 4° C. The tubes are centrifuged at 300×g for 15 min (1380 rpm on SORVAL, Model RT6000D, using the rotor for 50 mL tubes). The supernatant is discarded and the cells suspended in homogenizing buffer(10 mM Tris-HCl containing 0.25 M sucrose and 1 mM EDTA, pH 7.4) ensuring that the volume of the buffer is about ten times the volume of the cell pellet. The cells are pooled into a centrifuge tube (50 mL) and homogenized with a Polytron at setting 6 for 10 sec. The homogenate is transferred into a Potter-Elvjehm homogenizer and homogenized with 3 strokes. The homogenate is centrifuged at 1500×g for 10 min at 4° C. (3100 rpm using SORVAL, model RT6000D, using the rotor for 50 mL tubes). The pellet is discarded. The supernatant is centrifuged at 100,000×g for 60 min. at 4° C. (Beckman L8-80M ultracentrifuge; spin at 37,500 rpm with rotor type 70 Ti for 50 mL tubes; 38,000 rpm with type 80Ti for 15 mL tubes; or 35,800 rpm with rotor type 45Ti). The supernantant is discarded and the pellet suspended in 3 to 4 mL of Tris buffer (50 mM TRIS-HCl, pH 7.4). The protein content is estimated by the Bradford or Lowry method. The volume of the membrane suspension is adjusted with the membrane buffer (50 mM Tris-HCl containing 0.1% BSA and 0.1 mM PMSF) to give 3.0 mg/mL (or as appropriate) of protein. The membranes are aliquoted and stored at −70° C. C. Radioligand Binding Assay: In wells of a 96-well format microtiter plate, is added 90, 110 or 130 μL (to make up a final volume of 200 μL) of assay buffer containing 50 mM of Tris-HCl (pH 7.4), BSA (heat inactivated, protease-free), […], 1 mg % aprotinin, 1 mg % leupeptin, 2 mg % 1,10-phenanthroline, 10 mg % trypsin inhibitor, and 0.1 mM PMSF. The inhibitors are added on the day of the experiment. The components are mixed at room temperature, and then kept in ice bath following adjustment of the pH to 7.4. […] 20 μL of 50% DMSO is added for Manning and other peptide ligands and the assay buffer volume is adjusted accordingly. To each well is added 50 μL of frozen membrane suspension thawed immediately prior to use and diluted in the assay buffer to the required concentration (equivalent to 25 to 50 μg of protein/well as needed). 20 μL of 8 nM [^3H]Manning ligand in the assay buffer, prepared just before use, is added, and incubated at room temperature for 60 min. shaking the plate on a mechanical shaker for the first 15 min. The incubation is stopped by rapid filtration of the plate contents followed by wash with ice-cold buffer (50 mM Tris-HCl, pH 7.4) using a cell harvester (Tomtek and Printed filtermat-B filter paper). The filter paper is thoroughly dried (7–12 min. in a microwave oven) and impregnated with MeltiLex B/H melt-on scintillation wax sheets and the radioactivity counted in a betaplate scintillation counter.
# Binding data is either reported as percent inhibition at a certain concentration or if an IC50 was calculated, as a nanomolar concentration.
# T1 sequence (P37288 whole entry): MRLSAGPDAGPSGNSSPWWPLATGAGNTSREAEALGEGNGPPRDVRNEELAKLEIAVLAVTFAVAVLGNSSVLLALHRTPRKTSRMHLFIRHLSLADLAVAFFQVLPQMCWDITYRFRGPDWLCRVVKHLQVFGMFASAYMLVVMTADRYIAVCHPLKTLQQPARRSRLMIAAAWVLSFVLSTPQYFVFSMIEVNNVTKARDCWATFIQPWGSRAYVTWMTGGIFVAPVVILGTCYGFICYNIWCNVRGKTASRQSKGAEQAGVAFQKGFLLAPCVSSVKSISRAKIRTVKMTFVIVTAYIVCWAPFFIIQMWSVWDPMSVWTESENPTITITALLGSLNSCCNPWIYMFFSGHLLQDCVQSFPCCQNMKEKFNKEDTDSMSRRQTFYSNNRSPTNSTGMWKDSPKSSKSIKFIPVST
SMILES,inhibition at 0.1 µM [%],V1a % inhibition @ 100 nM [%]
"Cc1cc(C(=O)N2Cc3ccc(C(=O)N(CCCN(C)C)CCCN(C)C)n3Cc3ccccc32)ccc1-c1ccccc1C(F)(F)F [Example 3, 10-[(2-Methyl-2′-trifluoromethyl-[1,1′-biphenyl]-4-yl)-carbonyl]-10,11-dihydro-5H-pyrrolo[2,1-c][1,4]benzodiazepine-3-carboxylic acid bis-(3-dimethylamino-propyl)-amide]",-8,
"Cc1cccc(N2CCN(C(=O)c3ccc4n3Cc3ccccc3N(C(=O)c3ccc(-c5ccccc5C(F)(F)F)c(C)c3)C4)CC2C)c1 (stereo not drawn) [Example 5, [3-Methyl-4-(3-methyl-phenyl)-piperazin-1-yl]-[10-(2-methyl-2′-trifluoromethyl-[1,1′-biphenyl]-4-yl)carbonyl]-10,11-dihydro-5H-pyrrolo[2,1-c][1,4]benzodiazepin-3-yl-methanone]",,−6
"COc1cc2c(cc1OC)N(C(=O)c1ccc(-c3ccccc3C(F)(F)F)c(C)c1)Cc1ccc(C(=O)N(C)CCCN(C)C)n1C2.Cl [Example 13, N-Methyl-[N-(3-dimethylamino)propyl]-7,8-dimethoxy-10-{[2-methyl-2′-(trifluoromethyl)[1,1′-biphenyl]-4-yl]carbonyl}-10,11-dihydro-5H-pyrrolo[2,1-c][1,4]benzodiazepine-3-carboxamide hydrochloride salt]",,4
"COc1cc2c(cc1OC)N(C(=O)c1ccc(-c3ccccc3C(F)(F)F)c(C)c1)Cc1ccc(C(=O)N3CCC(=O)CC3)n1C2 [Example 14, 7,8-Dimethoxy-10-{[2-methyl-2′-(trifluoromethyl)-[1,1′-biphenyl]-4-yl]carbonyl}-[(10,11-dihydro-5H-pyrrolo[2,1-c][1,4]benzodiazepin-3-yl)carbonyl]-4-piperidinone]",,−16
"COC(=O)c1ccc2c(c1)N(C(=O)c1ccc(-c3ccccc3C(F)(F)F)c(C)c1)Cc1cccn1C2 [Example 26, Methyl 10-{[2-methyl-2′-trifluoromethyl-[1,1′-biphenyl]-4-yl]carbonyl}-10,11-dihydro-5H-pyrrolo[2,1-c][1.4]benzodiazepine-8-carboxylate]",,−3
"COc1cc(C(=O)N2Cc3ccc(C(=O)N4CCC[C@H]4CN4CCCC4)n3Cc3ccccc32)ccc1-c1ccccc1Cl [Example 33, {[10-(2-Methoxy)-2′-chloro-[1,1′-biphenyl]-4-yl]carbonyl}-[(2S)-[(2-pyrrolidin-1-yl)methyl]pyrrolidin-1-yl]-10,11-dihydro-5H-pyrrolo[2,1-c][1,4]benzodiazepin-3-yl-methanone]",,68
"Cc1cc(C(=O)N2Cc3ccc(C(=O)NCCCN(C)C)n3Cc3ccccc32)ccc1-c1ccccc1C(F)(F)F [Example 84, N-[3-(Dimethylamino)propyl]-10-{[2-methyl-2′-(trifluoromethyl)[1,1′-biphenyl]-4-yl]carbonyl}-10,11-dihydro-5H-pyrrolo[2,1-c][1 .4]benzodiazepine-3-carboxamide]",,1
"COc1ccccc1-c1ccc(C(=O)N2Cc3ccc(C(=O)N(C)CCCN(C)C)n3Cc3ccccc32)cc1OC [Example 107, 10-[(2,2′-Dimethoxy[1,1′-biphenyl]-4-yl)carbonyl]-N-[3-(dimethylamino)propyl]-N-methyl-10,11-dihydro-5H-pyrrolo[2,1-c][1,4]benzodiazepine-3-carboxamide]",15,
"COc1cccc(-c2ccc(C(=O)N3Cc4ccc(C(=O)N(C)CCCN(C)C)n4Cc4ccccc43)cc2OC)c1 [Example 108, 10-[(2,3′-Dimethoxy[1,1′-biphenyl]-4-yl)carbonyl]-N-[3-(dimethylamino)propyl]-N-methyl-10,11-dihydro-5H-pyrrolo[2,1-c][1,4]benzodiazepine-3-carboxamide]",52,
"CN(C)CCCN(C)C(=O)c1ccc2n1Cc1ccccc1N(C(=O)c1ccc(-c3cccc4ccccc34)cc1Cl)C2 [Example 109, 10-[2-Chloro-4-(1-naphthyl)benzoyl]-N-[3-(dimethylamino)propyl]-N-methyl-10,11-dihydro-5H-pyrrolo[2,1-c][1,4]benzodiazepine-3-carboxamide]",9,
"COc1ccccc1-c1ccc(C(=O)N2Cc3ccc(C(=O)N4CCC(N5CCCCC5)CC4)n3Cc3ccccc32)cc1C [Example 112, {10-[(2-Methyl-2′-methoxy[1,1′-biphenyl]-4-yl)carbonyl]-10,11-dihydro-5H-pyrrolo[2,1-c][1,4]benzodiazepin-3-yl}[4-(1-piperidinyl)-1-piperidinyl]methanone]",8,
"Cc1ccccc1-c1ccc(C(=O)N2Cc3ccc(C(=O)N4CCC(N5CCCCC5)CC4)n3Cc3ccccc32)cc1C [Example 113, {10-[(2-Methyl-2′-methyl[1,1′-biphenyl]-4-yl)carbonyl]-10,11-dihydro-5H-pyrrolo[2,1-c][1,4]benzodiazepin-3-yl}[4-(1-piperidinyl)-1-piperidinyl]methanone]",45,
"COc1cccc(-c2ccc(C(=O)N3Cc4ccc(C(=O)N5CCC(N6CCCCC6)CC5)n4Cc4ccccc43)cc2C)c1 [Example 114, {10-[(2-Methyl-3′-methoxy[1,1′-biphenyl]-4-yl)carbonyl]-10,11-dihydro-5H-pyrrolo[2,1-c][1,4]benzodiazepin-3-yl}[4-(1-piperidinyl)-1-piperidinyl]methanone]",11,
"Cc1ccccc1-c1ccc(C(=O)N2Cc3ccc(C(=O)N4CCC(N5CCCCC5)CC4)n3Cc3ccccc32)cc1 [Example 115, {10-[(2′-Methyl[1,1′-biphenyl]-4-yl)carbonyl]-10,11-dihydro-5H-pyrrolo[2,1-c][1,4]benzodiazepin-3-yl}[4-(1-piperidinyl)-1-piperidinyl]methanone]",11,
"COc1cc(C(=O)N2Cc3ccc(C(=O)N4CCC(N5CCCCC5)CC4)n3Cc3ccccc32)ccc1-c1ccccc1C [Example 116, {10-[(2-Methoxy-2′-methyl[1,1′-biphenyl]-4-yl)carbonyl]-10,11-dihydro-5H-pyrrolo[2,1-c][1,4]benzodiazepin-3-yl}[4-(1-piperidinyl)-1-piperidinyl]methanone]",42,
"COc1cccc(-c2cc(OC)c(C(=O)N3Cc4ccc(C(=O)N5CCC(N6CCCCC6)CC5)n4Cc4ccccc43)cc2Cl)c1 [Example 117, {10-[(6-Chloro-3-methoxy-3′-methoxy[1,1′-biphenyl]-4-yl)carbonyl]-10,11-dihydro-5H-pyrrolo[2,1-c][1,4]benzodiazepin-3-yl}[4-(1-piperidinyl)-1-piperidinyl]methanone]",-3,
"COc1cc(C(=O)N2Cc3ccc(C(=O)N4CCC(N5CCCCC5)CC4)n3Cc3ccccc32)ccc1-c1cccc2ccccc12 [Example 118, {10-[3-Methoxy-4-(1-naphthyl)-benzoyl]-10,11-dihydro-5H-pyrrolo[2,1-c][1,4]benzodiazepin-3-yl}[4-(1-piperidinyl)-1-piperidinyl]methanone]",14,
"COc1ccccc1-c1ccc(C(=O)N2Cc3ccc(C(=O)N4CCC(N5CCCCC5)CC4)n3Cc3ccccc32)cc1OC [Example 119, {10-[(2,2′-Dimethoxy-[1,1′-biphenyl]-4-yl)carbonyl]-10,11-dihydro-5H-pyrrolo[2,1-c][1,4]benzodiazepin-3-yl}[4-(1-piperidinyl)-1-piperidinyl]methanone]",9,
